Measurements reported in patent US20080311076A1, “Morpholinylanilinoquinazoline Derivatives For Use As Antiviral Agents” (ARROW THERAPEUTICS LIMITED, priority 2004, published 2008).

System: HCV replicon cells Huh 9B
Experiment: HCV replicon assay (luciferase) in Huh 9B replicon cells
Assay type: cell-based
Details: Hepatitis C virus; concentration reducing replicon level (luciferase activity) by 50% vs untreated cell control; 72 h incubation
Description: HCV replicon cells Huh 9B (ReBlikon), containing the firefly luciferase—ubiquitin—neomycin phosphotransferase fusion protein and EMCV-IRES driven HCV polyprotein with cell culture adaptive mutations.
Cells were cultured at 37° C. in a 5% CO2 environment and split twice a week on seeding at 2×10E6 cells/flask on day 1 and 1×10E6 3 days later. Some 0.25 mg/ml G418 was added to the culture medium (125 ul per 25 ml) but not the assay medium.
The culture medium consisted of DMEM with […] glucose and glutamax (Gibco 61965-026) supplemented with 1× non-essential amino acids, penicillin (100 IU/ml)/streptomycin (100 μg/ml), FCS (10%, 50 ml) and 1 mg/ml G418 (Invitrogen cat no 10131-027) & 10% foetal calf serum.
A flask of cells was trypsinised and a cell count carried out. Cells were diluted to 100,000 cells/ml and 100 μl of this used to seed one opaque white 96-well plate (for the replicon assay) and one flat-bottomed clear plate (for the tox assay) for every seven compounds to be tested for IC50. Wells G12 and H12 were left empty in the clear plate as the blank. Plates were then incubated at 37° C. in a 5% CO2 environment for 24 h.
On the following day compound dilutions are made up in medium at twice their desired final concentration in a clear round bottomed plate. All dilutions have a final DMSO concentration of 1%.
Once the dilution plate had been made up, controls and compounds were transferred to the assay plate (containing the cells) at 100 μl/well in duplicate plates.
Exception: in the white (replicon) plate, no compound was added to wells A1 and A2 and 100 μl of 1% DMSO was added to these instead. In the clear (Tox) plate, wells E12 & F12 only contained the DMSO control. Plates were then incubated at 37° C. with 5% CO2 for 72 h.
At the end of the incubation time, the cells in the white plate were harvested by washing with 200 μl/well of warm (37° C.) PBS and lysed with 20 μl cell culture lysis buffer (Promega). After 5 min incubation @ RT, luciferin solution was added to the luciferase assay buffer (LARB at 200 μl per 10 ml LARB. The M injector of the microplate luminometer (Lmax, Molecular Devices) was primed with […] injections. Plate were inserted into the luminometer and 100 μl luciferase assay reagent was added by the injector on the luminometer. The signal was measured using a 1 second delay followed by a 4 second measurement programme. The IC50, the concentration of the drug required for reducing the replicon level by 50% in relation to the untreated cell control value, can be calculated from the plot of the percentage reduction of the luciferase activity vs. drug concentration.

| Structure (SMILES) | IC50 [µM] |
| --- | --- |
| CC(C)N(c1ccc(N2CCOCC2)cc1)c1ncnc2ccc(-c3cccs3)cc12 [Example 48, Isopropyl-(4-morpholin-4-yl-phenyl)-(6-thiophen-2-yl-quinazolin-4-yl)-amine] | < 5 |
| CCOC(=O)c1cccc(NC(=O)c2ccc3ncnc(Nc4ccc(N5CCOCC5)cc4)c3c2)c1 [Example 27, 3-{[4-(4-Morpholin-4-yl-phenylamino)-quinazoline-6-carbonyl]-amino}-benzoic acid ethyl ester] | < 5 |
| O=C(Nc1ccc2ncnc(Nc3ccc(N4CCOCC4)cc3)c2c1)c1ccco1 [Example 25, Furan-2-carboxylic acid [4-(4-morpholin-4-yl-phenylamino)-quinazolin-6-yl]-amide] | < 25 |
| CC(=O)Nc1ccc(-c2ccc3ncnc(Nc4ccc(N5CCOCC5)cc4)c3c2)cc1 [Example 35, N-{4-[4-(4-Morpholin 4-yl-phenylamino)-quinazolin-6-yl]-phenyl}-acetamide] | < 1 |
| CN1CCN(Cc2ccc(-c3ccc4ncnc(Nc5ccc(N6CCOCC6)cc5)c4c3)o2)CC1 [Example 11, {6-[5-(4-Methyl-piperazin-1-ylmethyl)-furan-2-yl]-quinazolin-4-yl}-(4-morpholin-4-yl-phenyl)-amine] | < 5 |
| N#Cc1ccc(-c2ccc3ncnc(Nc4ccc(N5CCOCC5)cc4)c3c2)cc1 [Example 24, 4-[4-(4-Morpholin-4-yl-phenylamino)-quinazolin-6-yl]-benzonitrile] | < 5 |
| c1nc(Nc2ccc(N3CCOCC3)cc2)c2cc(-c3ccc(C4OCCO4)o3)ccc2n1 [Example 6, [6-(5-[1,3]Dioxolan-2-yl-furan-2-yl)quinazolin-4-yl]-(4-morpholin-4-yl-phenyl)-amine] | < 5 |
| c1nc(Nc2ccc(N3CCOCC3)cc2)c2cc(-c3ccc(CN4CCOCC4)o3)ccc2n1 [Example 12, [6-(5-Morpholin-4-ylmethyl-furan-2-yl)-quinazolin-4-yl]-(4-morpholin-4-yl-phenyl)-amine] | < 1 |
| c1cc(-c2ccc3ncnc(Nc4ccc(N5CCOCC5)cc4)c3c2)cc(-n2cccn2)c1 [Example 23, (4-Morpholin-4-yl-phenyl)-[6-(3-pyrazol-1-yl-phenyl)-quinazolin-4-yl]-amine] | < 1 |
